Test results: article PMC11480532, “The rapid-reaction kinetics of an electron-bifurcating flavoprotein, the crotonyl-CoA-dependent NADH:ferredoxin oxidoreductase EtfAB:bcd” (The Journal of Biological Chemistry, 2024)

Assays:
[1] = biological target: T1, EtfAB:bcd (crotonyl-CoA-dependent NADH:ferredoxin oxidoreductase), NADH site on the bifurcating FAD of EtfAB (Megasphaera elsdenii, UniProt G0VLZ5+G0VLZ6); assay: stopped-flow at […] nm, hyperbolic fit of kobs of bf FAD reduction; type: biochemical; conditions: oxidized complex, 6.5 μM; 50 mM Tris-HCl, 150 mM NaCl, pH 7.5, 10 °C; anaerobic; no ferredoxin or crotonyl-CoA; fast phase (bf FAD); read-out: apparent Kd
T1 construct: gene MELS_2127; full-length recombinant EtfAB and bcd, each with C-terminal Strep-II tag, E. coli BL21, mixed equimolar; assignment of Mels_2126 to EtfA and Mels_2127 to EtfB is inferred from the printed order; with Electron transfer flavoprotein subunit alpha; Acyl-CoA dehydrogenase, short-chain specific (butyryl-CoA dehydrogenase)
T1 sequence (G0VLZ6 1-270): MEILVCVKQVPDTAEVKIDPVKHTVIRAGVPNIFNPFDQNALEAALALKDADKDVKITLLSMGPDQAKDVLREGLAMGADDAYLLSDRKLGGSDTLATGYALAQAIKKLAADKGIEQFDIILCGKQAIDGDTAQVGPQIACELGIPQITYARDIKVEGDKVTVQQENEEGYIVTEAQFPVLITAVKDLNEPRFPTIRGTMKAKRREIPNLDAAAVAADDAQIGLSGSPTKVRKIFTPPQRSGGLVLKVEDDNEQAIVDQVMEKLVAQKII
T1 sequence (G0VLZ5 1-338): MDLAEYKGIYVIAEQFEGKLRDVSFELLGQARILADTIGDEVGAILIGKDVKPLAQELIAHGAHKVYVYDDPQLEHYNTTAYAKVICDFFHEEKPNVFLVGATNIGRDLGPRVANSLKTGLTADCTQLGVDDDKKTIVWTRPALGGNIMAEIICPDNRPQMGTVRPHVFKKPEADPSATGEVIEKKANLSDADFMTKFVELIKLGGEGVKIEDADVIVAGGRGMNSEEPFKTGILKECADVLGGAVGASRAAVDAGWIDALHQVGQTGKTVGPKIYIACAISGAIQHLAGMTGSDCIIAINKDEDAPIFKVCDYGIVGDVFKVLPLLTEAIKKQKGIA
T1 sequence (G0VLZ7 1-383 partner): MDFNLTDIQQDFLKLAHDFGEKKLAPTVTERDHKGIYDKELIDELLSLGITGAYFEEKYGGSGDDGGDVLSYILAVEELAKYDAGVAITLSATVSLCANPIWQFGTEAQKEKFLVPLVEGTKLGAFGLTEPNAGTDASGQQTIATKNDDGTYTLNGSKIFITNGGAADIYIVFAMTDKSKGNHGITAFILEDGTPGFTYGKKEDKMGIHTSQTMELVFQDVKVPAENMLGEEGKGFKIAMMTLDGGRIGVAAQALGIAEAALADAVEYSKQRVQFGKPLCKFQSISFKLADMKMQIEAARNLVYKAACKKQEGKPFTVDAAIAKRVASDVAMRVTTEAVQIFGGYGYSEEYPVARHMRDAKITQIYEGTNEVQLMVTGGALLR

[2] = biological target: T2, EtfAB:bcd (crotonyl-CoA-dependent NADH:ferredoxin oxidoreductase), crotonyl-CoA site on bcd (Megasphaera elsdenii, UniProt G0VLZ7); assay: stopped-flow reoxidation of dithionite-reduced complex; charge-transfer absorbance; oxidative titration; type: biochemical; conditions: fully reduced EtfAB:bcd; 50 mM Tris-HCl, 150 mM NaCl, pH 7.5, 10 °C; anaerobic; no ferredoxin
T2 construct: gene MELS_2128; same complex as P1; bcd freed of persulfide-CoA adduct by dithionite; C-terminal Strep-II tags, E. coli BL21; with Electron transfer flavoprotein subunit alpha; Electron transfer flavoprotein subunit beta
T2 sequence (G0VLZ7 1-383): T1 sequence (G0VLZ7 1-383 partner)
T2 sequence (G0VLZ5 1-338 partner): T1 sequence (G0VLZ5 1-338)
T2 sequence (G0VLZ6 1-270 partner): T1 sequence (G0VLZ6 1-270)

| Structure (SMILES) | Kd [1] [µM] | stopped-flow reoxidation of dithionite-reduced complex; charge-transfer absorban [2] |
| --- | --- | --- |
| NC(=O)C1=CN([C@@H]2O[C@H](COP(=O)(O)OP(=O)(O)OC[C@H]3O[C@@H](n4cnc5c(N)ncnc54)[C@H](O)[C@@H]3O)[C@@H](O)[C@H]2O)C=CC1 [NADH] | 43 | – |
| C/C=C/C(=O)SCCNC(=O)CCNC(=O)[C@H](O)C(C)(C)COP(=O)(O)OP(=O)(O)OC[C@H]1O[C@@H](n2cnc3c(N)ncnc32)[C@H](O)[C@@H]1OP(=O)(O)O [crotonyl-CoA] | – | reoxidation of dithionite-reduced EtfAB:bcd6e- by crotonyl-CoA, which exhibits a [crotonyl-CoA]-independent rate constant |
